Assay results taken from patent publication US20240316053A1, “USE OF FOLATE DERIVATIVE IN PREPARATION OF DRUG FOR TREATING CONTACT LENS DISCOMFORT AND DRY EYE” (LIANYUNGANG JINKANG HEXIN PHARMACEUTICAL CO., LTD., priority 2021, published 2024).

Assays:
IL-17 [1] = experiment: Inflammatory factors on ocular surface of mice with chronic dry eye (ELISA); type: in vivo; settings: Example 3, 0.5% eye drop, cornea, conjunctiva and draining lymph node, FIG. 6
Description: (§1) The experiment was divided into 3 groups. 20 mice with chronic dry eye in Example 2 were divided into a 5-methylterahydrofolic acid group (group A, n=10), and an arginine group (group B, n=10). 4 normal mice were taken as the control group. Each eye of the mice in group A was dripped with 5 μL of 5-methylterahydrofolic acid eye drop every day, each eye of the mice in group B was dripped with 5 μL of 0.5% arginine eye drop every day, and each eye of the mice in group C was dripped with 5 μL of a phosphate buffer every day. Tears were collected on the 3rd, 5th, 7th and 10th day after treatment, and the secretion of tears was detected. On the 10th day after treatment, the cornea of the mice in each group were stained with fluorescein.
After treatment, the animals were euthanized, and the eye tissues such as cornea, lacrimal gland and meibomian gland were taken out and washed in PBS. The cornea, conjunctiva and draining lymph node were collected and stored in cold sterile PBS at −80° C. The samples were homogenized and centrifuged on ice. The levels of […], IL-17 and IL-6 in the supernatant were determined by ELISA kit (Raybiotech).

[2] = system: symptomatic contact lens wearers; experiment: Follow-up of degree of discomfort of wearing contact lenses; type: in vivo, human; settings: group A (n=4), oral 5 mg calcium salt of 6S-5-methylterahydrofolic acid/tablet every day, contact lenses worn after 3 days
Description: A total of 10 adults suffering from contact lens discomfort were included in the study. Among them, 8 felt uncomfortable when wearing contact lenses, and 2 were asymptomatic contact lens wearers. The contact lenses worn by the participants were all silicone hydrogel-based contact lenses. All the participants were in good health. The symptoms and severity of eye discomfort were evaluated by the ocular surface disease index (OSDI), and whether there were symptoms such as inflammation in the eyes was checked by an optometrist.
(§2) The symptomatic contact lens wearers were divided into 2 groups, that is, group A (n=4) and group B (n=4). The asymptomatic contact lens wearers were assigned to group C The participants in each group didn't wear contact lenses for 24 hours, and then the tears were collected. Dietary supplements containing 5 mg calcium salt of 6S-5-methylterahydrofolic acid/tablet were orally taken by the participants in group A every day. After 3 days, the participants in each group began to wear contact lenses, and the tears were collected after 6 hrs. The contents of IL-2, IL-6, IL-17, and TNF-α were detected (ELISA method). The participants in each group were followed up to determine the degree of discomfort of wearing contact lenses.

[3] = system: mice with chronic dry eye; experiment: Corneal fluorescein staining in mice with chronic dry eye; type: in vivo; settings: 10th day after treatment
Text: It can be seen that a suitable animal model of dry eye is very important, and it is impossible to show the true state of dry eye or contact lens discomfort only by destroying the lacrimal gland or modeling with hypertonic saline. The mouse model of dry eye constructed under specific environmental conditions is closest to the real situation. 120 female BALB/c mice aged 8-12 weeks were placed in an isolated and sealed cage with an opening on the top. Air dried through anhydrous CaSO4 was pumped into the cage by an air pump, where the air humidity RH=19.5%±5%, the flow rate was 15 L/min, and the temperature was 21-23° C. The mice in the dry and windy environment were taken out on the 5th, 15th and 30th day respectively. The production of tears was measured by phenol red thread test, and compared with that of the mice raised in standard cages in normal environment. Meanwhile, the cornea of the mice were stained with fluorescein, and the punctate staining was recorded in the cornea.
as §1
The experiment was divided into 4 groups. […] Tears were collected on the 3rd, 5th, 7th and 10th day after treatment, and the secretion of tears was detected. […]

MMP-9 = experiment: Semi-quantitative RT-PCR in ipsilateral trigeminal ganglion of mice with chronic dry eye; type: in vivo; settings: Example 3, 0.5% eye drop, FIG. 7
Description: as §1
(§3) The ipsilateral trigeminal ganglion and trigeminal trunk of the eye of the mice were dissected quickly on ice, immediately frozen with liquid nitrogen, and stored at −80° C. RNA was extracted from ipsilateral trigeminal ganglion and trigeminal trunk by using NucleoSpin RNA purification II kit (NucleoSpin RNAS, Germany), and PCR amplification was carried out with mouse-specific cDNAs for matrix metalloproteinases MMP-9, MMP-2, and TNF-α. For each primer, the reaction was stopped after 24, 28, 32, 36, or 40 cycles, so as to ensure that the PCR products were within the linear range of the amplification curve, and semi-quantitative RT-PCR for the expression of related genes was realized.

MMP-2 = experiment: as above; type: in vivo; settings: Example 3, 0.5% eye drop, FIG. 7
Description: as §1, §3

TNF-α = experiment: as above; type: in vivo; settings: Example 3, 0.5% eye drop, FIG. 7
Description: as §1, §3

IL-17 [4] = experiment: IL-17 content in tears of contact lens wearers (ELISA); type: in vivo, human; settings: symptomatic wearers, oral 5 mg/tablet daily, tears collected after 6 hrs of lens wear, FIG. 1
Description: as §2

Stability in water = type: physicochemical
[5] = Example 3, 0.5% eye drop, 5 μL per eye every day, FIG. 5

Compound	IL-17 inflammatory factor on ocular surface (IL-17 [1])	participants saying that the contact lens discomfort almost disappears [2] [participants]	participants thinking that the effect is not significant [2] [case]	corneal injury (fluorescein staining) [3, 5]	MMP-9 gene expression in trigeminal nerve (MMP-9)	MMP-2 gene expression in trigeminal nerve (MMP-2)	TNF-α gene expression in trigeminal nerve (TNF-α)	level of IL-17 in tears (IL-17 [4])	corneal injury (fluorescein staining) ([3]; Example 4, eye drops, FIG. 9)	stability in water (Stability in water)
CN1c2c(nc(N)[nH]c2=O)NCC1CNc1ccc(C(=O)N[C@@H](CCC(=O)O)C(=O)O)cc1 (some centres unmarked) [5-methylterahydrofolic acid]	can significantly reduce IL-17 inflammatory factor	3	1	can improve the corneal injury with a significant difference from the baseline state	not on MMP-9 significantly	can significantly inhibit the MMP-2 gene expression	a certain inhibitory effect on TNF-α	can reduce the level of IL-17 in tears	–	–
CN1c2c(nc(N)[nH]c2=O)NC[C@@H]1CNc1ccc(C(=O)N[C@@H](CCC(=O)O)C(=O)O)cc1.N=C(N)NCCC[C@H](N)C(=O)O [arginine 5-methylterahydrofolate, arginine 6S-5-methylterahydrofolate]	–	–	–	–	–	–	–	–	can improve the corneal injury, with a significant difference from the baseline state	very poor
N=C(N)NCCC[C@H](N)C(=O)O [arginine, reference compound]	–	–	–	can not significantly improve the ocular surface damage	–	–	–	–	–	–
